This note sets out measurements from paper PMC11772155, “Solid-Phase-Supported Chemoenzymatic Synthesis and Analysis of Chondroitin Sulfate Proteoglycan Glycopeptides” (Angewandte Chemie (International ed. in English), 2024).

This test concerns the target T1, Human Neutrophil Cathepsin G (Homo sapiens, UniProt P08311).
T1 construct: Human Neutrophil Cathepsin G was purchased from Athens; purchased Athens Research & Technology, Inc. (Athens, Georgia)
T1 sequence (P08311 21-243 limits assumed): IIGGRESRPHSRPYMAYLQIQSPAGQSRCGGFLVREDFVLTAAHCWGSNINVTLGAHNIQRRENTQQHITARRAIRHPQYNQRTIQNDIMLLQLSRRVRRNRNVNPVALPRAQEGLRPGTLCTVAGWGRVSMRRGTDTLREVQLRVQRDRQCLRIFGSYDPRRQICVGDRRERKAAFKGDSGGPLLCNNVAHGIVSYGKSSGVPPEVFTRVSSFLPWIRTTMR
As to the kind of experiment: BLI (biolayer interferometry) binding assay of immobilized biotinylated compounds with Cathepsin G. An excerpt:
With structurally defined glycopeptides in hand, we aim to better understand the structural features needed for bikunin glycopeptide binding. Cathepsin G (CatG), a neutrophil serine protease, plays a crucial role in regulating various physiological processes, including inflammation, digestion, smooth muscle contraction, and tissue remodeling.[64] While CatG has been reported to interact with CSPG, the structural requirement of CSPG binding has not been established.[25] To measure the binding affinity towards CatG, peptides 5 and glycopeptides 10, 18–21 were biotinylated and immobilized on streptavidin coated sensors for biolayer interferometry (BLI) studies. Biotinylated 50 kDa CS and CS-A were also immobilized on the sensors for comparison. […]
General procedure of glycopeptide biotinylation
To a solution of peptide or glycopeptide in DMSO/H 2O (1/1, 0.1 ml) was added NHS-LC-Biotin (4 equiv.) and diisoproylethylamine (pH ~ 8.5). The reaction was incubated at 37 °C for 2 h. Then the mixture was dried in vacuo and purified by HPLC.
General procedure for BLI binding assay
The binding assay was performed on the Octet K2 System (Pall ForteBio). The biotinylated compounds were incubated with streptavidin (SA) sensors for 2 min. The sensor was then balanced in the assay buffer (PBS containing 0.005% P20) and dipped into Cathepsin G solution in assay buffer at 2000 nM, 1000 nM, 500 nM, 250 nM concentrations.
After 5 min of association, the sensor was brought back to the previous assay buffer for a 5 min dissociation step. At the end of the assay, the sensor was regenerated in 2 M NaCl to remove the bound protein. Each measurement was repeated 3 times on the same sensor. The control assay was performed with another sensor loaded with a 2 mM biotin solution.
Figure S3. Binding of peptide and glycopeptides a) 5, b) 10 , c) 18 , d) 19 , e) 20 , f) 21 , g) commercially available biotinylated 50 kDa CS, and h) 50 kDa CS-A to neutrophil Cathepsin G as measured by BLI ( a-h respectively). The biotinylated compounds (50 nM) were immobilized on streptavidin coated biosensors, and human neutrophil Cathepsin G was captured on biosensors with four concentrations at 2000 nM, 1000 nM, 500 nM, 250 nM.
Fitting curves were shown in red lines. […]
In general terms: Biolayer interferometry detects binding as a change in optical thickness at a sensor tip.

Where [1] appears, read: biotinylated compounds immobilized on streptavidin sensors, Cathepsin G at 2000, 1000, 500, 250 nM in PBS containing 0.005% P20, read-out: KD (nM) with Cathepsin G.

Each structure is given as a SMILES string. Read-outs that look alike come from different tables or passages of the source. Numbered stars: 1 amine (or outer) side, 2 acyl side, 3 side chain; on linkers, the order of the positions; unused ones are H or OH. Square brackets hold non-standard residues; d marks the D form. Peptide text beside a SMILES is read from it. X3 = CC(=O)N[C@H]1[C@H](O[C@H]2[C@H](O)[C@@H](O)[C@H](O[C@H]3[C@@H](O)[C@@H](CO)O[C@@H](O[C@H]4[C@H](O)[C@@H](O)[C@H](O[C@H]5[C@@H](O)[C@@H](CO)O[C@@H](O[C@H]6[C@H](O)[C@@H](O)[C@H](O[C@H]7[C@@H](O)[C@@H](CO)O[C@@H](O[C@H]8[C@H](O)[C@@H](O)[C@H](O[C@H]9[C@@H](O)[C@@H](CO)O[C@@H](O[C@H]%10[C@@H](O)[C@@H](CO)O[C@@H](O[C@@H]%11CO[C@@H](OC[C@H](N[*:1])C(=O)[*:2])[C@H](O)[C@H]%11O)[C@@H]%10O)[C@@H]9O)O[C@@H]8C(=O)O)[C@@H]7NC(C)=O)O[C@@H]6C(=O)O)[C@@H]5NC(C)=O)O[C@@H]4C(=O)O)[C@@H]3NC(C)=O)O[C@@H]2C(=O)O)O[C@H](CO)[C@H](O)[C@@H]1O[C@@H]1O[C@H](C(=O)O)[C@@H](O)[C@H](O)[C@H]1O; X1 = CC(=O)N[C@H]1[C@H](O[C@H]2[C@H](O)[C@@H](O)[C@H](O[C@H]3[C@@H](O)[C@@H](CO)O[C@@H](O[C@H]4[C@@H](O)[C@@H](CO)O[C@@H](O[C@@H]5CO[C@@H](OC[C@H](N[*:1])C(=O)[*:2])[C@H](O)[C@H]5O)[C@@H]4O)[C@@H]3O)O[C@@H]2C(=O)O)O[C@H](CO)[C@H](OS(=O)(=O)O)[C@@H]1O[C@@H]1O[C@H](C(=O)O)[C@@H](O[C@@H]2O[C@H](CO)[C@H](OS(=O)(=O)O)[C@H](O[C@@H]3O[C@H](C(=O)O)[C@@H](O[C@@H]4O[C@H](CO)[C@H](O)[C@H](O[C@@H]5O[C@H](C(=O)O)[C@@H](O)[C@H](O)[C@H]5O)[C@H]4NC(C)=O)[C@H](O)[C@H]3O)[C@H]2NC(C)=O)[C@H](O)[C@H]1O; X2 = CC(=O)N[C@H]1[C@H](O[C@H]2[C@H](O)[C@@H](O)[C@H](O[C@H]3[C@@H](O)[C@@H](CO)O[C@@H](O[C@H]4[C@@H](O)[C@@H](CO)O[C@@H](O[C@@H]5CO[C@@H](OC[C@H](N[*:1])C(=O)[*:2])[C@H](O)[C@H]5O)[C@@H]4O)[C@@H]3O)O[C@@H]2C(=O)O)O[C@H](CO)[C@H](OS(=O)(=O)O)[C@@H]1O[C@@H]1O[C@H](C(=O)O)[C@@H](O[C@@H]2O[C@H](CO)[C@H](O)[C@H](O[C@@H]3O[C@H](C(=O)O)[C@@H](O)[C@H](O)[C@H]3O)[C@H]2NC(C)=O)[C@H](O)[C@H]1O

As to `CC(=O)N[C@H]1[C@H](O[C@H]2[C@H](O)[C@@H](O)[C@H](O[C@H]3[C@@H](O)[C@@H](CO)O[C@@H](O[C@H]4[C@@H](O)[C@@H](CO)O[C@@H](O[C@@H]5CO[C@@H](OC[C@H](NC(=O)CNC(=O)[C@H](CCC(=O)O)NC(=O)[C@H](CCC(=O)O)NC(=O)[C@H](CCC(=O)O)NC(=O)[C@H](CCC(N)=O)NC(=O)[C@@H]6CCCN6C(=O)[C@H](CC(C)C)NC(=O)[C@@H](NC(=O)[C@H](C)N)C(C)C)C(=O)NCC(=O)NCC(=O)NCC(=O)N[C@@H](CCC(N)=O)C(=O)N[C@@H](CC(C)C)C(=O)N[C@H](C(=O)N[C@H](C(=O)N[C@@H](CCC(=O)O)C(=O)N[C@H](C(=O)N[C@H](C(=O)N[C@@H](CCCCN)C(=O)N[C@@H](CCCCN)C(=O)N[C@@H](CCC(=O)O)C(=O)N[C@@H](CC(=O)O)C(=O)N[C@@H](CO)C(=O)O)[C@@H](C)O)C(C)C)[C@@H](C)O)C(C)C)[C@H](O)[C@H]5O)[C@@H]4O)[C@@H]3O)O[C@@H]2C(=O)O)O[C@H](CO)[C@H](OS(=O)(=O)O)[C@@H]1O[C@@H]1O[C@H](C(=O)O)[C@@H](O[C@@H]2O[C@H](CO)[C@H](OS(=O)(=O)O)[C@H](O[C@@H]3O[C@H](C(=O)O)[C@@H](O[C@@H]4O[C@H](CO)[C@H](O)[C@H](O[C@@H]5O[C@H](C(=O)O)[C@@H](O)[C@H](O)[C@H]5O)[C@H]4NC(C)=O)[C@H](O)[C@H]3O)[C@H]2NC(C)=O)[C@H](O)[C@H]1O` [Compound 20] (H-AVLPQEEEG[X1]GGGQLVTEVTKKEDS-OH; N-terminus and C-terminus assumed), under setting [1], the Kd came to 74 ± 7 nM.
Take `CC(=O)N[C@H]1[C@H](O[C@H]2[C@H](O)[C@@H](O)[C@H](O[C@H]3[C@@H](O)[C@@H](CO)O[C@@H](O[C@H]4[C@@H](O)[C@@H](CO)O[C@@H](O[C@@H]5CO[C@@H](OC[C@H](NC(=O)CNC(=O)[C@H](CCC(=O)O)NC(=O)[C@H](CCC(=O)O)NC(=O)[C@H](CCC(=O)O)NC(=O)[C@H](CCC(N)=O)NC(=O)[C@@H]6CCCN6C(=O)[C@H](CC(C)C)NC(=O)[C@@H](NC(=O)[C@H](C)N)C(C)C)C(=O)NCC(=O)NCC(=O)NCC(=O)N[C@@H](CCC(N)=O)C(=O)N[C@@H](CC(C)C)C(=O)N[C@H](C(=O)N[C@H](C(=O)N[C@@H](CCC(=O)O)C(=O)N[C@H](C(=O)N[C@H](C(=O)N[C@@H](CCCCN)C(=O)N[C@@H](CCCCN)C(=O)N[C@@H](CCC(=O)O)C(=O)N[C@@H](CC(=O)O)C(=O)N[C@@H](CO)C(=O)O)[C@@H](C)O)C(C)C)[C@@H](C)O)C(C)C)[C@H](O)[C@H]5O)[C@@H]4O)[C@@H]3O)O[C@@H]2C(=O)O)O[C@H](CO)[C@H](OS(=O)(=O)O)[C@@H]1O[C@@H]1O[C@H](C(=O)O)[C@@H](O[C@@H]2O[C@H](CO)[C@H](O)[C@H](O[C@@H]3O[C@H](C(=O)O)[C@@H](O)[C@H](O)[C@H]3O)[C@H]2NC(C)=O)[C@H](O)[C@H]1O` [Compound 19] (H-AVLPQEEEG[X2]GGGQLVTEVTKKEDS-OH; N-terminus and C-terminus assumed): where the note is “read-out: KD (nM) with Cathepsin G, biotinylated compounds immobilized on streptavidin sensors, Cathepsin G at 2000, 1000, 500, 250 nM in PBS containing 0.005% P20”, the Kd amounted to 49 ± 5 nM.
For the molecule `CC(=O)N[C@H]1[C@H](O[C@H]2[C@H](O)[C@@H](O)[C@H](O[C@H]3[C@@H](O)[C@@H](CO)O[C@@H](O[C@H]4[C@H](O)[C@@H](O)[C@H](O[C@H]5[C@@H](O)[C@@H](CO)O[C@@H](O[C@H]6[C@H](O)[C@@H](O)[C@H](O[C@H]7[C@@H](O)[C@@H](CO)O[C@@H](O[C@H]8[C@H](O)[C@@H](O)[C@H](O[C@H]9[C@@H](O)[C@@H](CO)O[C@@H](O[C@H]%10[C@@H](O)[C@@H](CO)O[C@@H](O[C@@H]%11CO[C@@H](OC[C@H](NC(=O)CNC(=O)[C@H](CCC(=O)O)NC(=O)[C@H](CCC(=O)O)NC(=O)[C@H](CCC(=O)O)NC(=O)[C@H](CCC(N)=O)NC(=O)[C@@H]%12CCCN%12C(=O)[C@H](CC(C)C)NC(=O)[C@@H](NC(=O)[C@H](C)N)C(C)C)C(=O)NCC(=O)NCC(=O)NCC(=O)N[C@@H](CCC(N)=O)C(=O)N[C@@H](CC(C)C)C(=O)N[C@H](C(=O)N[C@H](C(=O)N[C@@H](CCC(=O)O)C(=O)N[C@H](C(=O)N[C@H](C(=O)N[C@@H](CCCCN)C(=O)N[C@@H](CCCCN)C(=O)N[C@@H](CCC(=O)O)C(=O)N[C@@H](CC(=O)O)C(=O)N[C@@H](CO)C(=O)O)[C@@H](C)O)C(C)C)[C@@H](C)O)C(C)C)[C@H](O)[C@H]%11O)[C@@H]%10O)[C@@H]9O)O[C@@H]8C(=O)O)[C@@H]7NC(C)=O)O[C@@H]6C(=O)O)[C@@H]5NC(C)=O)O[C@@H]4C(=O)O)[C@@H]3NC(C)=O)O[C@@H]2C(=O)O)O[C@H](CO)[C@H](O)[C@@H]1O[C@@H]1O[C@H](C(=O)O)[C@@H](O)[C@H](O)[C@H]1O` [Compound 18] (H-AVLPQEEEG[X3]GGGQLVTEVTKKEDS-OH; N-terminus and C-terminus assumed), under setting [1], the Kd came out at 490 ± 18 nM.

A word on the Kd: it is the equilibrium constant for the complex coming apart.
